The values that follow come from US10112937B2, “P2X7 modulators and methods of use” (Janssen Pharmaceutica NV, priority 2013, dated 2018).

One assay concerns the target human P2X7 (Homo sapiens (Human), UniProt Q99572). The assay can be described thus: P2X7 antagonism in human PBMCs (IL-1β release after LPS + Bz-ATP, ELISA). In kind it is cell-based. To be noted: for PBMC 1 μM (% control): test compound 1 μM.
A further assay addresses rat P2X7 (Rattus norvegicus (Rat), UniProt Q64663). The assay can be described thus: Ca2+ flux (FLIPR) in 1321N1 cells expressing recombinant rat P2X7.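 Also: Calcium-4 dye fluorescence change read 180 s after agonist addition, with cells preincubated 30 min with compound and dye in 96-well plates.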 In kind it is cell-based.
Where [1] appears, read: human PBMCs, test compound 10 μM.
The mark [2] stands for this setting: 1321N1 cells, recombinant rat P2X7, 250 μM BzATP.
[3] abbreviates: 10 μM test compound, human PBMCs, LPS + Bz-ATP.

Structures are written as SMILES.

human P2X7, sequence (Q99572 whole entry): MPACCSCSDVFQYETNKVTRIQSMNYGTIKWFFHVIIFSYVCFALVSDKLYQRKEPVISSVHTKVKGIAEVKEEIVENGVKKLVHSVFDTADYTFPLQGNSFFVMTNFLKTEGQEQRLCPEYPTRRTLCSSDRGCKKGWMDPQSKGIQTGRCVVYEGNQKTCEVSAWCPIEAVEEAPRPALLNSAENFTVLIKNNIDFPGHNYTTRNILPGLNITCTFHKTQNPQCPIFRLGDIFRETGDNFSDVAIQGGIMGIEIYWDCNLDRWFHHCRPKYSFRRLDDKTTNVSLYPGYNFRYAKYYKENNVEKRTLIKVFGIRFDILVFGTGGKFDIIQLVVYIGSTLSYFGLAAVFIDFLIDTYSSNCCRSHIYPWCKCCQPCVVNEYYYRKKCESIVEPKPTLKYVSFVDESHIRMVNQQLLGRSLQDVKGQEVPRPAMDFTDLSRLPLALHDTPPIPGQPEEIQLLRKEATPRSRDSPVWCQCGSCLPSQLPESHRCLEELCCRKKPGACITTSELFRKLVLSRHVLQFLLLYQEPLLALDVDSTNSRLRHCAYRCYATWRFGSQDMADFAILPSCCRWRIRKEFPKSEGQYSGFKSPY
rat P2X7, sequence (Q64663 whole entry): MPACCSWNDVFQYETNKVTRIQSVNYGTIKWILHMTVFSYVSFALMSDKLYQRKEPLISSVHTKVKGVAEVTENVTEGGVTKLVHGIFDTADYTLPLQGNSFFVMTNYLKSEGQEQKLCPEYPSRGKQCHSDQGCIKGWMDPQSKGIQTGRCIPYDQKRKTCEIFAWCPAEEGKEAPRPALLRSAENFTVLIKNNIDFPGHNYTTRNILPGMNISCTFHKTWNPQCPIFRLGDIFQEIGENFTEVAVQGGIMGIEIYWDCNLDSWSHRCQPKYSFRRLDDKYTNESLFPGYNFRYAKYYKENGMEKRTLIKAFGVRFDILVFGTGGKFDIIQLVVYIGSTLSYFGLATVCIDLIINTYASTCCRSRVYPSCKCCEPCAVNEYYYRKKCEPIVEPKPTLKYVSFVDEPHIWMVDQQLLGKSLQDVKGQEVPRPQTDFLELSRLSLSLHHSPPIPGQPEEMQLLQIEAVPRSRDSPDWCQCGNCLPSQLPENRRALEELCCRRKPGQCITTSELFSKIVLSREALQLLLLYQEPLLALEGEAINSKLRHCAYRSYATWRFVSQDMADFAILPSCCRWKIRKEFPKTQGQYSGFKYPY

`O=C(c1cccc(C(F)(F)F)c1Cl)N1CCc2c(ncn2-c2ccccn2)C1CF` (stereo not shown) [Example 32, (2-Chloro-3-(trifluoromethyl)phenyl)(4-(fluoromethyl)-1-(pyridin-2-yl)-6,7-dihydro-1H-imidazo[4,5-c]pyridin-5(4H)-yl)methanone]: the “PBMC 10 μM (% control)” value on human P2X7 (setting [1]) is listed as 1.9 % control. At rat P2X7 (setting [2]), the IC50 was 0.0475 µM.

On to `CC1c2ncn(-c3ccc(F)cn3)c2CCN1C(=O)c1cccc(C(F)(F)F)c1F` (stereo not shown) [Example 262, (2-fluoro-3-(trifluoromethyl)phenyl)(1-(5-fluoropyridin-2-yl)-4-methyl-6,7-dihydro-1H-imidazo[4,5-c]pyridin-5(4H)-yl)methanone], for which the “PBMC 10 μM (% control)” value at human P2X7 (setting [1]) is −3.6 % control. Further, the IC50 at rat P2X7 (setting [2]) is 3.47 µM.

`O=C(c1cccc(C(F)(F)F)c1Cl)N1CCc2c(nnn2-c2ccccn2)C1` [Example 63, 5-{[2-Chloro-3-(trifluoromethyl)phenyl]carbonyl}-1-pyridin-2-yl-4,5,6,7-tetrahydro-1H-[1,2,3]triazolo[4,5-c]pyridine]: the IC50 at rat P2X7 (setting [2]) was found to be 1.45 µM.

As for `Cc1ccnc(-n2nnc3c2CCN(C(=O)c2ccnc(C(F)(F)F)c2F)[C@H]3C)c1` (single isomer, unassigned) [Example 357, (S*)-(3-fluoro-2-(trifluoromethyl)pyridin-4-yl)(4-methyl-1-(4-methylpyridin-2-yl)-6,7-dihydro-1H-[1,2,3]triazolo[4,5-c]pyridin-5(4H)-yl)methanone], the “PBMC 10 μM (% control)” value on human P2X7 (setting [1]) came to 42.4 % control. In addition, the IC50 on rat P2X7 (setting [2]) is 16.2 µM.

On to `Cc1cc(-n2nnc3c2CCN(C(=O)c2cccc(C(F)(F)F)c2Cl)[C@@H]3C)ncc1F` (single isomer, unassigned) [Example 382, (R*)-(2-chloro-3-(trifluoromethyl)phenyl)(1-(5-fluoro-4-methylpyridin-2-yl)-4-methyl-6,7-dihydro-1H-[1,2,3]triazolo[4,5-c]pyridin-5(4H)-yl)methanone], for which the “PBMC 10 μM (% control)” value at human P2X7 (setting [1]) was −2.7 % control. For the same molecule, on rat P2X7 (setting [2]), the concentration for half-maximal inhibition (IC50) was determined as 0.0566 µM.

Turning to `CC1c2n[nH]c(-c3cnccn3)c2CCN1C(=O)c1cccc(C(F)(F)F)c1Cl` (stereo not shown) [Example 438, (2-chloro-3-(trifluoromethyl)phenyl)(7-methyl-3-(pyrazin-2-yl)-4,5-dihydro-2H-pyrazolo[3,4-c]pyridin-6(7H)-yl)methanone], the “PBMC 10 μM (% control)” value at human P2X7 (setting [3]) is recorded as −10.8 % control. Also, on rat P2X7 (Ca2+ flux, 250 μM BzATP, rat P2X7 1321N1 cells), the IC50 is 0.482 µM.

On to `Cc1cc(-n2nnc3c2CCN(C(=O)c2ccc(Cl)c(C(F)(F)F)c2)C3C)ncc1F` (stereo not shown) [Example 364, (4-chloro-3-(trifluoromethyl)phenyl)(1-(5-fluoro-4-methylpyridin-2-yl)-4-methyl-6,7-dihydro-1H-[1,2,3]triazolo[4,5-c]pyridin-5(4H)-yl)methanone], for which the “PBMC 10 μM (% control)” value on human P2X7 (setting [1]) is 4.8 % control. Besides, on rat P2X7 (setting [2]), the IC50 was determined as 5.79 µM.

In the case of `CC1c2ncn(-c3cnccn3)c2CCN1C(=O)c1cccc(C(F)(F)F)c1F` (stereo not shown) [Example 14, (2-Fluoro-3-(trifluoromethyl)phenyl)(4-methyl-1-(pyrazin-2-yl)-6,7-dihydro-1H-imidazo[4,5-c]pyridin-5(4H)-yl)methanone], the concentration for half-maximal inhibition (IC50) at rat P2X7 (setting [2]) was 0.122 µM.

For `Cc1ccnc(-n2nnc3c2CCN(C(=O)c2ccnc(C(F)(F)F)c2F)[C@@H]3C)c1` (single isomer, unassigned) [Example 356, (R*)-(3-fluoro-2-(trifluoromethyl)pyridin-4-yl)(4-methyl-1-(4-methylpyridin-2-yl)-6,7-dihydro-1H-[1,2,3]triazolo[4,5-c]pyridin-5(4H)-yl)methanone], the “PBMC 10 μM (% control)” value on human P2X7 (setting [1]) is −5.9 % control. The half-inhibitory concentration (IC50) on rat P2X7 (setting [2]) came to 0.12 µM.

In the case of `Cc1ccnc(-n2nnc3c2CCN(C(=O)c2cccc(Cl)c2C)C3C)c1` (stereo not shown) [Example 388, (3-chloro-2-methylphenyl)(4-methyl-1-(4-methylpyridin-2-yl)-6,7-dihydro-1H-[1,2,3]triazolo[4,5-c]pyridin-5(4H)-yl)methanone], on human P2X7 (setting [1]), the “PBMC 10 μM (% control)” value is on record as −18.8 % control. Also, at rat P2X7 (setting [2]), the IC50 worked out at 2.28 µM.

As for `CN(C)C(=O)C1c2ncn(-c3ccccn3)c2CCN1C(=O)c1cccc(C(F)(F)F)c1Cl` (stereo not shown) [Example 34, 5-{[2-Chloro-3-(trifluoromethyl)phenyl]carbonyl}-N,N-dimethyl-1-pyridin-2-yl-4,5,6,7-tetrahydro-1H-imidazo[4,5-c]pyridine-4-carboxamide], the IC50 at rat P2X7 (setting [2]) was 0.279 µM.

Take `CN(C)CC1c2ncn(-c3ccccn3)c2CCN1C(=O)c1cccc(C(F)(F)F)c1Cl` (stereo not shown) [Example 31, 1-(5-{[2-Chloro-3-(trifluoromethyl)phenyl]carbonyl}-1-pyridin-2-yl-4,5,6,7-tetrahydro-1H-imidazo[4,5-c]pyridin-4-yl)-N,N-dimethylmethanamine]: the IC50 on rat P2X7 (setting [2]) is 0.333 µM.

In the case of `CC1c2ncn(-c3ncccn3)c2CCN1C(=O)c1cccc(C(F)(F)F)c1Cl` (stereo not shown) [Example 23, (2-Chloro-3-(trifluoromethyl)phenyl)(4-methyl-1-(pyrimidin-2-yl)-6,7-dihydro-1H-imidazo[4,5-c]pyridin-5(4H)-yl)methanone], the “PBMC 10 μM (% control)” value on human P2X7 (setting [1]) was 6.4 % control. For the same molecule, the IC50 at rat P2X7 (setting [2]) is 0.113 µM.

For the molecule `CCn1ccc(-n2nnc3c2CCN(C(=O)c2ccnc(C(F)(F)F)c2Cl)[C@H]3C)n1` [Example 411, (S)-(3-chloro-2-(trifluoromethyl)pyridin-4-yl)(1-(1-ethyl-1H-pyrazol-3-yl)-4-methyl-6,7-dihydro-1H-[1,2,3]triazolo[4,5-c]pyridin-5(4H)-yl)methanone], at human P2X7 (setting [3]), the “PBMC 10 μM (% control)” value is listed as 69.6 % control.

`O=C(c1cccc(C(F)(F)F)c1Cl)N1CCc2c(ncn2-c2ccc(F)cn2)C1` [Example 315, (2-chloro-3-(trifluoromethyl)phenyl)(1-(5-fluoropyridin-2-yl)-6,7-dihydro-1H-imidazo[4,5-c]pyridin-5(4H)-yl)methanone]: the “PBMC 10 μM (% control)” value on human P2X7 (setting [1]) stood at 8.8 % control.

In the case of `CCOC(=O)C1c2ncn(-c3ccccc3)c2CCN1C(=O)c1cccc(Cl)c1Cl` (stereo not shown) [Example 27, Ethyl 5-(2,3-dichlorobenzoyl)-1-phenyl-4,5,6,7-tetrahydro-1H-imidazo[4,5-c]pyridine-4-carboxylate], the IC50 at rat P2X7 (setting [2]) turned out to be 2.81 µM.

For `O=C(c1ccc(Cl)cc1F)N1CCc2c(nnn2-c2ccccn2)C1` [Example 129, (4-Chloro-2-fluorophenyl)(1-(pyridin-2-yl)-6,7-dihydro-1H-[1,2,3]triazolo[4,5-c]pyridin-5(4H)-yl)methanone], on human P2X7 (setting [1]), the “PBMC 10 μM (% control)” value is on record as 8.4 % control.

For `Cc1ccnc(-n2nnc3c2CCN(C(=O)c2cccc(C(F)(F)F)c2Cl)[C@H]3C)n1` (single isomer, unassigned) [Example 439, (S*)-(2-chloro-3-(trifluoromethyl)phenyl)(4-methyl-1-(4-methylpyrimidin-2-yl)-6,7-dihydro-1H-[1,2,3]triazolo[4,5-c]pyridin-5(4H)-yl)methanone], the “PBMC 10 μM (% control)” value on human P2X7 (setting [3]) was 1.2 % control.

`C[C@@H]1c2nnn(-c3cnccn3)c2CCN1C(=O)c1ccc(F)c(Cl)c1Cl` (single isomer, unassigned) [Example 143, (R*)-(2,3-Dichloro-4-fluorophenyl)(4-methyl-1-(pyrazin-2-yl)-6,7-dihydro-1H-[1,2,3]triazolo[4,5-c]pyridin-5(4H)-yl)methanone]: the “PBMC 10 μM (% control)” value on human P2X7 (setting [1]) is recorded as 58.0 % control.

As to `Cn1nc(-c2ccccc2)c2c1CN(C(=O)c1cccc(Cl)c1Cl)CC2` [Example 103, 6-[(2,3-Dichlorophenyl)carbonyl]-1-methyl-3-phenyl-4,5,6,7-tetrahydro-1H-pyrazolo[3,4-c]pyridine], the “PBMC 1 μM (% control)” value on human P2X7 (human PBMCs) came out at 56.0 % control.

Turning to `CC1Cc2c(nnn2-c2cc[nH]n2)CN1C(=O)c1cccc(C(F)(F)F)c1Cl` (stereo not shown) [Example 210, (2-chloro-3-(trifluoromethyl)phenyl)(6-methyl-1-(1H-pyrazol-3-yl)-6,7-dihydro-1H-[1,2,3]triazolo[4,5-c]pyridin-5(4H)-yl)methanone], the “PBMC 10 μM (% control)” value on human P2X7 (setting [1]) is recorded as 0.8 % control.

`CC1c2nnn(-c3ncccn3)c2CCN1C(=O)c1cccc(C(F)(F)F)c1Cl` (single isomer, unassigned) [Example 88, (4R*)-5-{[2-Chloro-3-(trifluoromethyl)phenyl]carbonyl}-4-methyl-1-pyrimidin-2-yl-4,5,6,7-tetrahydro-1H-[1,2,3]triazolo[4,5-c]pyridine]: the “PBMC 10 μM (% control)” value on human P2X7 (setting [1]) is 18.2 % control.

As for `CC1c2nnn(-c3ncccc3F)c2CCN1C(=O)c1cccc(C(F)(F)F)c1Cl` (stereo not shown) [Example 84, 5-{[2-Chloro-3-(trifluoromethyl)phenyl]carbonyl}-1-(3-fluoropyridin-2-yl)-4-methyl-4,5,6,7-tetrahydro-1H-[1,2,3]triazolo[4,5-c]pyridine], the “PBMC 10 μM (% control)” value on human P2X7 (setting [1]) is listed as 8.5 % control.

Turning to `C[C@H]1c2nnn(-c3cnccn3)c2CCN1C(=O)c1cccc(C(F)(F)F)c1Cl` (single isomer, unassigned) [Example 75, (4S*)-5-{[2-Chloro-3-(trifluoromethyl)phenyl]carbonyl}-4-methyl-1-pyrazin-2-yl-4,5,6,7-tetrahydro-1H-[1,2,3]triazolo[4,5-c]pyridine], at human P2X7 (human PBMCs), the “PBMC 1 μM (% control)” value stood at 5.2 % control. Moreover, on human P2X7 (setting [1]), the “PBMC 10 μM (% control)” value is recorded as −0.3 % control.

For `C[C@@H]1c2ncn(-c3ccc(F)cc3)c2CCN1C(=O)c1cccc(C(F)(F)F)c1Cl` (single isomer, unassigned) [Example 46, (4R*)-5-{[2-Chloro-3-(trifluoromethyl)phenyl]carbonyl}-1-(4-fluorophenyl)-4-methyl-4,5,6,7-tetrahydro-1H-imidazo[4,5-c]pyridine], the “PBMC 10 μM (% control)” value on human P2X7 (setting [1]) was 2.1 % control; at human P2X7 (test compound 10 μM, LPS 30 ng/ml + 0.5 mM Bz-ATP), 2.1 % control.

Regarding `C[C@H]1Cc2c(nnn2-c2ncccc2F)CN1C(=O)c1cccc(C(F)(F)F)c1Cl` (single isomer, unassigned) [Example 168, (6S*)-5-{[2-Chloro-3-(trifluoromethyl)phenyl]carbonyl}-1-(3-fluoropyridin-2-yl)-6-methyl-4,5,6,7-tetrahydro-1H-[1,2,3]triazolo[4,5-c]pyridine], on human P2X7 (setting [1]), the “PBMC 10 μM (% control)” value is reported as −4.2 % control.
